Structures can show the parent of a compound that is named as a salt.

T1 sequence (P25103 whole entry): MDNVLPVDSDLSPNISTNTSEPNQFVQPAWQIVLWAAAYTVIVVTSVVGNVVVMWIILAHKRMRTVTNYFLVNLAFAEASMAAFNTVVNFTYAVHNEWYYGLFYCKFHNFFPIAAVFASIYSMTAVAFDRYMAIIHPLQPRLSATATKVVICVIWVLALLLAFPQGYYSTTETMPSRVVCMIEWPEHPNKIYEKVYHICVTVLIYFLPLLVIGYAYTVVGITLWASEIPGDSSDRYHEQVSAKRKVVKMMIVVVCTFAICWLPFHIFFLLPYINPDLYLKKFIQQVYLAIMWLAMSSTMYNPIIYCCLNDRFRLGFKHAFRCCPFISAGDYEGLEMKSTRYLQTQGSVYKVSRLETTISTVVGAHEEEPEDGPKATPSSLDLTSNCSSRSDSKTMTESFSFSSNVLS

This assay has as its target T1, recombinant human NK1 receptors (Homo sapiens, UniProt P25103).
T1 construct: expressed in transfected cells; host or cells: Chinese Hamster Ovary (CHO) cells, membrane preparation
Kind of assay: NK1-receptor binding affinity, displacement of [3H]-substance P. The settings on record: negative logarithm of Ki; displacement of [3H]-substance P from recombinant human NK1 receptors in CHO cell membranes; average of at least two determinations. As for the experimental part:
NK1-receptor binding affinity has been determined in vitro by the compounds' ability to displace [3H]-substance P (SP) from recombinant human NK1 receptors expressed in Chinese Hamster Ovary (CHO) cell membranes.
CHO cell membranes were prepared by using a modification of the method described by Dam T and Quirion R (Peptides, 7: 855–864, 1986). Thus ligand binding was performed in 0.4 mL of 50 mM HEPES, pH 7.4, containing 3 mM MnCl2, 0.02% BSA, 0.5 nM [^3H]-Substance P (30÷56 Ci/mmol, Amersham), a final membrane concentration of 25 μg of protein/ml, and the test compounds. The incubation proceeded at room temperature for 40 min. Non-specific binding was determined using excess of Substance P (1 μM) and represents about 6% of the total binding.
The affinity of the compound of the invention for NK1 receptor was determined using the NK1-receptor binding affinity method measuring in vitro by the compounds' ability to displace [3H]-substance P (SP) from recombinant human NK1 receptors expressed in Chinese Hamster Ovary (CHO) cell membranes. The affinity values are expressed as negative logarithm of the inhibition constant (Ki) of displacer ligands (pKi).
Consider `Cc1cc(F)ccc1[C@H]1CNCCCN1C(=O)N(C)Cc1cc(C(F)(F)F)cc(C(F)(F)F)c1` [Example 1, 2-(S)-(4-Fluoro-2-methyl-phenyl)-[1,4]-diazepane-1-carboxylic acid, (3,5-bis-trifluoromethyl-benzyl)-methylamide hydrochloride], for which the Ki is 34.7 pM.

On to `Cc1cc(F)ccc1[C@H]1CCNCCN1C(=O)N(C)Cc1cc(C(F)(F)F)cc(C(F)(F)F)c1` [Example 2, 7-(R)-(4-Fluoro-2-methyl-phenyl)-[1,4]-diazepane-1-carboxylic acid, (3,5-bis-trifluoromethyl-benzyl)-methylamide hydrochloride], for which the Ki was 72.4 pM.

`Cc1cc(F)ccc1[C@H]1CNCCCN1C(=O)N(C)[C@H](C)c1cc(C(F)(F)F)cc(C(F)(F)F)c1` [Example 3, 2-(S)-(4-Fluoro-2-methyl-phenyl)-[1,4]-diazepane-1-carboxylic acid, [1-(R)-(3,5-bis-trifluoromethyl-phenyl)-ethyl]-methylamide hydrochloride]: the Ki is 24.5 pM.

As for `Cc1cc(F)ccc1[C@H]1CCNCCN1C(=O)N(C)[C@H](C)c1cc(C(F)(F)F)cc(C(F)(F)F)c1` [Example 4, 7-(R)-(4-Fluoro-2-methyl-phenyl)-[1,4]-diazepane-1-carboxylic acid, [1-(R)-(3,5-bis-trifluoromethyl-phenyl)-ethyl]-methylamide hydrochloride], the inhibitory constant (Ki) was 19.5 pM.

In the case of `Cc1cc(F)ccc1[C@H]1CNCCCN1C(=O)N(C)Cc1cc(Cl)cc(Cl)c1` [Example 5, 2-(S)-(4-Fluoro-2-methyl-phenyl)-[1,4]-diazepane-1-carboxylic acid, (3,5-dichloro-benzyl)-methylamide hydrochloride], the Ki is 66.1 pM.

With `Cc1cc(F)ccc1[C@H]1CCNCCN1C(=O)N(C)Cc1cc(Cl)cc(Cl)c1` [Example 6, 7-(R)-(4-Fluoro-2-methyl-phenyl)-[1,4]-diazepane-1-carboxylic acid, (3,5-dichloro-benzyl)-methylamide hydrochloride], the Ki was 97.7 pM.

With `Cc1cc(F)ccc1[C@H]1CNCCCN1C(=O)N(C)[C@@H](C)c1cc(C(F)(F)F)cc(C(F)(F)F)c1` [Example 7, 2-(S)-(4-Fluoro-2-methyl-phenyl)-[1,4]-diazepane-1-carboxylic acid, [1-(S)-(3,5-bis-trifluoromethyl-phenyl)-ethyl]-methylamide hydrochloride], the inhibitory constant (Ki) is 47.9 pM.

With `Cc1cc(F)ccc1[C@H]1CCNCCN1C(=O)N(C)[C@@H](C)c1cc(C(F)(F)F)cc(C(F)(F)F)c1` [Example 8, 7-(R)-(4-Fluoro-2-methyl-phenyl)-[1,4]-diazepane-1-carboxylic acid, [1-(S)-(3,5-bis-trifluoromethyl-phenyl)-ethyl]-methylamide hydrochloride], the Ki is 45.7 pM.

With `CN(Cc1cc(C(F)(F)F)cc(C(F)(F)F)c1)C(=O)N1CCCNC[C@@H]1c1ccc(F)cc1` [Example 12a, 2-(S)-(4-Fluoro-phenyl)-[1,4]-diazepane-1-carboxylic acid, (3,5bis-trifluoromethyl-benzyl)-methylamide hydrochloride], the Ki was 501 pM.

`Cc1cc(F)ccc1[C@H]1CCN(C)CCN1C(=O)N(C)Cc1cc(Cl)cc(Cl)c1` [Example 13, 7-(R)-(4-Fluoro-2-methyl-phenyl)-4-methyl-[1,4]-diazepane-1-carboxylic acid, (3,5-dichloro-benzyl)-methylamide hydrochloride]: the Ki is 295 pM.

`Cc1cc(F)ccc1[C@H]1CCN(C)CCN1C(=O)N(C)Cc1cc(C(F)(F)F)cc(C(F)(F)F)c1` [Example 14, 7-(R)-(4-Fluoro-2-methyl-phenyl)-4-methyl-[1,4]-diazepane-1-carboxylic acid, (3,5-bis-trifluoromethyl-benzyl)-methylamide hydrochloride]: the Ki was 56.2 pM.

For the compound `Cc1cc(F)ccc1[C@H]1CCN(C)CCN1C(=O)N(C)[C@H](C)c1cc(C(F)(F)F)cc(C(F)(F)F)c1` [Example 15, 7-(R)-(4-Fluoro-2-methyl-phenyl)-4-methyl-[1,4]-diazepane-1-carboxylic acid, [1-(R)-(3,5-bis-trifluoromethyl-phenyl)-ethyl]-methylamide hydrochloride.], the Ki was 30.9 pM.

By Ki is commonly meant a measure of affinity in units of concentration, obtained from inhibition or displacement.

Source of the values: patent publication US7196077B2, “Tachykinin antagonists” (Glaxo Group Limited, priority 2001, dated 2007).
